In patent publication US20240407993A1, “PEPTIDE HAVING ANTI-AGING ACTIVITY, AND USE THEREOF” (CAREGEN CO., LTD., priority 2021, published 2024):

What was measured:
Elastin [1] = test: Elastin gene expression by RT-PCR in fibroblasts; type: cell-based, mouse; settings: NIH3T3 cells, peptide 1, 10, 50 μM, 24 hours; FIGS. 1A, 1D
Protocol: First, NIH3T3 cells (mouse fibroblast cell line) were seeded in a 6-well plate at a cell density of 3×10^5 cell/well, and then the cells were cultured in DMEM medium containing 10% fetal bovine serum (FBS) for 24 hours. The cultured cells were washed once with serum free DMEM medium, and the peptide of the present invention was mixed in 1 mL of the serum free DMEM medium at each of concentrations of 1, 10, and 50 μM, and dispensed into the cells. A positive control (PC) was treated with 5 ng/ml of TGF-β1 instead of the above peptide. The cells were cultured in a CO2 incubator at 37° C. for 24 hours.
The cultured cells were washed twice with PBS, and RNA was extracted from the cells using easy blue (iNtRON, Cat. No.: 17061, Korea). The amount of RNA extracted was quantified, 1,000 ng of RNA was added per tube, and RT reaction was performed using a kit (enzynomics, Cat. No.: PT200, Korea). RT-PCR was performed using a PCR kit (enzynomics, Cat. No.: […], Korea). The sequences of the primers of collagen, fibronectin, and elastin used in RT-PCR and the sequence of the primer of GAPDH used to compare the total RNA amount of each treatment group are shown in [Table 2].

Col1a1 = Col1a1 mRNA level decreased by UV irradiation, RT-PCR in fibroblasts; type: cell-based, mouse; settings: NIH3T3 cells, 8 J/cm^2 UVA, peptide 1, 10, 50 μM, 6 hours after irradiation; FIGS. 5A, 5B
Protocol: (§1) The expression of genes related to extracellular matrix components is inhibited when irradiated with UV.
(§2) First, NIH3T3 cells were seeded in a 6-well plate at a cell density of 5×10^5 cell/well, and then the cells were cultured in DMEM medium containing 10% fetal bovine serum (FBS) for 24 hours. The cultured cells were washed once with serum free DMEM medium, and then the peptide of the present invention was mixed in 1 mL of the serum free DMEM medium at each of concentrations of 1, 10, and 50 μM, and dispensed into the cells. A positive control (PC) was treated with 50 μM of Quercetin instead of the above peptide. The cells were cultured in a CO2 incubator at 37° C. for 1 hour.
(§3) The medium of the cultured cells was transferred to a tube (e-tube), 1 ml of PBS was added, and irradiation was performed with 8 J/cm^2 of UVA using a UV irradiator (VILBER LOURMAT, Cat No.: 3102-BSU, France). After removing PBS, 900 μL of the medium transferred to the tube was dispensed, and culture was performed in a CO2 incubator at 37° C. for 6 hours. The cultured cells were washed twice with PBS, and then RNA was extracted from the cells using easy blue (iNtRON, Cat. No.: 17061, Korea). The amount of RNA extracted was quantified, 1,000 ng of RNA was added per tube, and RT reaction was performed using a kit (enzynomics, Cat. No.: RT200, Korea). […]

Elastin [2] = test: Elastin mRNA level decreased by UV irradiation, RT-PCR in fibroblasts; type: cell-based, mouse; settings: NIH3T3 cells, 8 J/cm^2 UVA, peptide 1, 10, 50 μM, 6 hours after irradiation; FIGS. 5A, 5D
Protocol: as §1, §2, §3

MMP-1 = MMP-1 protein expression increased by UV irradiation, western blot in keratinocytes; type: cell-based, human; settings: HaCaT cells, 15 mJ/cm^2 UVB, peptide 1, 10, 50 μM, 24 hours after irradiation; FIG. 6B
Protocol: The expression of MMP-1 encoding proteins related to collagen degradation increases by ultraviolet irradiation. Therefore, it was confirmed whether the expression of the MMP-1 protein was inhibited again and the cell aging phenomenon was inhibited when treated with the peptide of the present invention.
First, NIH3T3 cells and HaCaT cells were seeded in a 6-well plate at a cell density of 5×10^5 cell/well, respectively, and then the cells were cultured in DMEM medium containing 10% fetal bovine serum (FBS) for 24 hours. The cultured cells were washed once with serum free DMEM medium, and the peptide of the present invention was mixed in 1 mL of the serum free DMEM medium at each of concentrations of 1, 10, and 50 μM, and dispensed into the cells. A positive control (PC) was treated with 2.5 mM of N-Acetylcysteine (NaC) instead of the above peptide.
The cells were cultured in a CO2 incubator at 37° C. for 1 hour. The medium of the cultured cells was transferred to a tube (e-tube), 1 ml of PBS was added, and then the NIH3T3 cells were irradiated with 6 J/cm^2 of UVA and the HaCaT cells were irradiated with 15 mJ/cm^2 of UVB using a UV irradiator (VILBER LOURMAT, Cat No.: 3102-BSU, France). After removing PBS, 900 μL of the medium transferred to the tube was added, and culture was performed in a CO2 incubator at 37° C. for 24 hours. […]

LCACCLHNCNECQ
expression of the elastin gene (Elastin [1]): gradually increased as a concentration of the peptide increased
mRNA level of Col1a1 decreased by UV irradiation (Col1a1): increased again
mRNA level of elastin decreased by UV irradiation (Elastin [2]): increased again
expression of MMP-1 increased by UV irradiation (MMP-1): inhibited
